# Data taken from patent publication US10294202B2, “Pyrrolidinones as herbicides” (FMC Corporation, priority 2013, dated 2019).
# Tests used:
# rice = assay: Test B flooded paddy test; assay type: in vivo, Oryza sativa; details: Flood, scale of 0 to 100 where 0 is no effect and 100 is complete control
# Outline: (§1)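 First, plants reach the 2-leaf stage; next, pots are flooded to 3 cm and compound is delivered into the water; finally, after 13 to 15 greenhouse days at constant depth, injury is graded visually from 0 to 100 against controls.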
# sedge, umbrella = assay: Test B flooded paddy test; assay type: in vivo, Cyperus difformis; details: Flood, scale of 0 to 100 where 0 is no effect and 100 is complete control
# Outline: as §1
# barnyardgrass [1] = assay: Test B flooded paddy test; assay type: in vivo, Echinochloa crus-galli; details: Flood, scale of 0 to 100 where 0 is no effect and 100 is complete control
# Outline: as §1
# crabgrass, large = assay: Test A pre-/postemergence herbicide test; assay type: in vivo, Digitaria sanguinalis
# Outline: (§2)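 Directed soil spray to seeded pots (preemergence) or spray onto one- to two-leaf seedlings 2–10 cm tall (postemergence); loam/sand substrate throughout. Evaluated visually after about 10 days against untreated plants, 0 = no effect, 100 = complete control.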
# corn = assay: Test A pre-/postemergence herbicide test; assay type: in vivo, Zea mays
# Outline: as §2
# ducksalad = assay: Test B flooded paddy test; assay type: in vivo, Heteranthera limosa; details: Flood, scale of 0 to 100 where 0 is no effect and 100 is complete control
# Outline: as §1
# velvetleaf = assay: Test A pre-/postemergence herbicide test; assay type: in vivo, Abutilon theophrasti
# Outline: as §2
# morningglory = assay: Test A pre-/postemergence herbicide test; assay type: in vivo, Ipomoea spp.
# Outline: as §2
# wheat = assay: Test A pre-/postemergence herbicide test; assay type: in vivo, Triticum aestivum
# Outline: as §2
# pigweed = assay: Test A pre-/postemergence herbicide test; assay type: in vivo, Amaranthus retroflexus
# Outline: as §2
# giant foxtail = assay: Test A pre-/postemergence herbicide test; assay type: in vivo, Setaria faberii
# Outline: as §2
# barnyardgrass [2] = assay: Test A pre-/postemergence herbicide test; assay type: in vivo, Echinochloa crus-galli
# Outline: as §2
# [3] = 125 g ai/ha, visual rating, 0 to 100 scale, 0 no effect, 100 complete control, approximately 10 days, preemergence
# [4] = Postemergence, 125 g ai/ha, 0 to 100 scale, 0 is no effect, 100 is complete control
# [5] = preemergence, 500 g ai/ha, 0 to 100 scale, 0 is no effect and 100 is complete control
# [6] = Postemergence, 1000 g ai/ha, 0 to 100 scale (0 no effect, 100 complete control)
# [7] = Preemergence, 1000 g ai/ha, visual rating on 0 to 100 scale (0 no effect, 100 complete control), approx. 10 days
# [8] = Postemergence, 500 g ai/ha, 0 to 100 scale (0 no effect, 100 complete control)
# [9] = Preemergence, 125 g ai/ha, 0 to 100 scale where 0 is no effect and 100 is complete control
# [10] = Postemergence, 125 g ai/ha, visual rating on 0 to 100 scale (0 no effect, 100 complete control), approx. 10 days
structure (smiles),measurement,setting,value
COc1ccc(C2CNC(=O)C2C(=O)Nc2ccccc2F)cc1F (racemic) [Compound 197],"Plant response rating, Rice",rice; 250 g ai/ha,0
same,"Plant response rating, Rice",rice; 1000 g ai/ha,10
same,"Plant response rating, Sedge, Umbrella","sedge, umbrella; 250 g ai/ha",0
same,"Plant response rating, Sedge, Umbrella","sedge, umbrella; 1000 g ai/ha",0
same,"Plant response rating, Barnyardgrass",barnyardgrass [1]; 250 g ai/ha,0
same,"Plant response rating, Barnyardgrass",barnyardgrass [1]; 1000 g ai/ha,30
same,"Plant response rating, Crabgrass, Large","crabgrass, large; [3]",80
same,"Plant response rating, Crabgrass, Large","crabgrass, large; [4]",50
same,"Crabgrass, Large plant response rating (0 to 100 scale, 0 is no effect, 100 is complete control)","crabgrass, large; Postemergence, 500 g ai/ha",70
same,"Plant response rating, Crabgrass, Large","crabgrass, large; [5]",100
same,"Plant response rating, Corn",corn; [3],0
same,"Plant response rating, Corn",corn; [4],0
same,"Corn plant response rating (0 to 100 scale, 0 is no effect, 100 is complete control)","corn; Postemergence, 500 g ai/ha",0
same,"Plant response rating, Corn",corn; [5],0
same,"Plant response rating, Ducksalad",ducksalad; 250 g ai/ha,0
same,"Plant response rating, Ducksalad",ducksalad; 1000 g ai/ha,75
same,"Plant response rating, Velvetleaf",velvetleaf; [3],0
same,"Plant response rating, Velvetleaf",velvetleaf; [4],0
same,"Velvetleaf plant response rating (0 to 100 scale, 0 is no effect, 100 is complete control)","velvetleaf; Postemergence, 500 g ai/ha",0
same,"Plant response rating, Velvetleaf",velvetleaf; [5],0
same,"Plant response rating, Morningglory",morningglory; [3],0
same,"Plant response rating, Morningglory",morningglory; [4],0
same,"Morningglory plant response rating (0 to 100 scale, 0 is no effect, 100 is complete control)","morningglory; Postemergence, 500 g ai/ha",10
same,"Plant response rating, Morningglory",morningglory; [5],0
same,"Plant response rating, Wheat",wheat; [3],0
same,"Plant response rating, Wheat",wheat; [4],0
same,"Wheat plant response rating (0 to 100 scale, 0 is no effect, 100 is complete control)","wheat; Postemergence, 500 g ai/ha",0
same,"Plant response rating, Wheat",wheat; [5],0
same,"Plant response rating, Pigweed",pigweed; [3],0
same,"Plant response rating, Pigweed",pigweed; [4],0
same,"Pigweed plant response rating (0 to 100 scale, 0 is no effect, 100 is complete control)","pigweed; Postemergence, 500 g ai/ha",0
same,"Plant response rating, Pigweed",pigweed; [5],0
same,"Plant response rating, Foxtail, Giant",giant foxtail; [3],30
same,"Plant response rating, Foxtail, Giant",giant foxtail; [4],0
same,"Foxtail, Giant plant response rating (0 to 100 scale, 0 is no effect, 100 is complete control)","giant foxtail; Postemergence, 500 g ai/ha",40
same,"Plant response rating, Foxtail, Giant",giant foxtail; [5],80
same,"Plant response rating, Barnyardgrass",barnyardgrass [2]; [3],0
same,"Plant response rating, Barnyardgrass",barnyardgrass [2]; [4],30
same,"Barnyardgrass plant response rating (0 to 100 scale, 0 is no effect, 100 is complete control)","barnyardgrass [2]; Postemergence, 500 g ai/ha",70
same,"Plant response rating, Barnyardgrass",barnyardgrass [2]; [5],70
O=C1NCC(c2ccc(F)c(F)c2)C1C(=O)Nc1cccc(Cl)c1F (racemic) [Compound 104],"Plant response rating, Rice",rice; 1000 g ai/ha,0
same,"Plant response rating, Sedge, Umbrella","sedge, umbrella; 1000 g ai/ha",0
same,"Plant response rating, Barnyardgrass",barnyardgrass [1]; 1000 g ai/ha,70
same,"Plant response rating, Crabgrass, Large","crabgrass, large; [6]",80
same,"Plant response rating, Crabgrass, Large","crabgrass, large; [7]",90
same,"Plant response rating, Corn",corn; [6],0
same,"Plant response rating, Corn",corn; [7],20
same,"Plant response rating, Ducksalad",ducksalad; 1000 g ai/ha,95
same,"Plant response rating, Velvetleaf",velvetleaf; [6],10
same,"Plant response rating, Velvetleaf",velvetleaf; [7],0
same,"Plant response rating, Morningglory",morningglory; [6],0
same,"Plant response rating, Morningglory",morningglory; [7],0
same,"Plant response rating, Wheat",wheat; [6],0
same,"Plant response rating, Wheat",wheat; [7],20
same,"Plant response rating, Pigweed",pigweed; [6],0
same,"Plant response rating, Pigweed",pigweed; [7],0
same,"Plant response rating, Foxtail, Giant",giant foxtail; [6],70
same,"Plant response rating, Foxtail, Giant",giant foxtail; [7],90
same,"Plant response rating, Barnyardgrass",barnyardgrass [2]; [6],80
same,"Plant response rating, Barnyardgrass",barnyardgrass [2]; [7],80
O=C1NCC(c2ccc(Cl)c(C(F)(F)F)c2)C1C(=O)Nc1ccccc1C(F)(F)F (racemic) [Compound 269],"Plant response rating, Rice",rice; 1000 g ai/ha,0
same,"Plant response rating, Sedge, Umbrella","sedge, umbrella; 1000 g ai/ha",0
same,"Plant response rating, Barnyardgrass",barnyardgrass [1]; 1000 g ai/ha,0
same,"Plant response rating, Crabgrass, Large","crabgrass, large; [4]",60
same,"Plant response rating, Crabgrass, Large","crabgrass, large; [8]",80
same,"Plant response rating, Crabgrass, Large","crabgrass, large; [9]",80
same,"Plant response rating, Crabgrass, Large","crabgrass, large; [5]",90
same,"Plant response rating, Corn",corn; [4],0
same,"Plant response rating, Corn",corn; [8],20
same,"Plant response rating, Corn",corn; [9],0
same,"Plant response rating, Corn",corn; [5],0
same,"Plant response rating, Ducksalad",ducksalad; 1000 g ai/ha,100
same,"Plant response rating, Velvetleaf",velvetleaf; [9],0
same,"Plant response rating, Velvetleaf",velvetleaf; [5],0
same,"Plant response rating, Morningglory",morningglory; [10],0
same,"Plant response rating, Morningglory",morningglory; [8],0
same,"Plant response rating, Morningglory",morningglory; [9],0
same,"Plant response rating, Morningglory",morningglory; [5],0
same,"Plant response rating, Wheat",wheat; [10],0
same,"Plant response rating, Wheat",wheat; [8],0
same,"Plant response rating, Wheat",wheat; [9],0
same,"Plant response rating, Wheat",wheat; [5],0
same,"Plant response rating, Pigweed",pigweed; [10],70
same,"Plant response rating, Pigweed",pigweed; [8],60
same,"Plant response rating, Pigweed",pigweed; [9],50
same,"Plant response rating, Pigweed",pigweed; [5],70
same,"Plant response rating, Foxtail, Giant",giant foxtail; [4],70
same,"Plant response rating, Foxtail, Giant",giant foxtail; [8],80
same,"Plant response rating, Foxtail, Giant",giant foxtail; [9],80
same,"Plant response rating, Foxtail, Giant",giant foxtail; [5],80
same,"Plant response rating, Barnyardgrass",barnyardgrass [2]; [4],50
same,"Plant response rating, Barnyardgrass",barnyardgrass [2]; [8],70
same,"Plant response rating, Barnyardgrass",barnyardgrass [2]; [9],70
same,"Plant response rating, Barnyardgrass",barnyardgrass [2]; [5],80
O=C1NCC(c2ccc(C(F)(F)F)c(F)c2)C1C(=O)Nc1ccccc1C(F)(F)F (racemic) [Compound 248],"Plant response rating, Rice",rice; 1000 g ai/ha,0
same,"Plant response rating, Sedge, Umbrella","sedge, umbrella; 1000 g ai/ha",0
same,"Plant response rating, Barnyardgrass",barnyardgrass [1]; 1000 g ai/ha,55
same,"Plant response rating, Crabgrass, Large","crabgrass, large; [4]",50
same,"Plant response rating, Crabgrass, Large","crabgrass, large; [8]",70
same,"Plant response rating, Crabgrass, Large","crabgrass, large; [9]",90
same,"Plant response rating, Crabgrass, Large","crabgrass, large; [5]",90
same,"Plant response rating, Corn",corn; [4],0
same,"Plant response rating, Corn",corn; [8],20
same,"Plant response rating, Corn",corn; [9],0
same,"Plant response rating, Corn",corn; [5],0
same,"Plant response rating, Ducksalad",ducksalad; 1000 g ai/ha,95
same,"Plant response rating, Velvetleaf",velvetleaf; [4],0
same,"Plant response rating, Velvetleaf",velvetleaf; [8],0
same,"Plant response rating, Velvetleaf",velvetleaf; [9],0
same,"Plant response rating, Velvetleaf",velvetleaf; [5],0
same,"Plant response rating, Morningglory",morningglory; [4],0
same,"Plant response rating, Morningglory",morningglory; [8],0
same,"Plant response rating, Morningglory",morningglory; [9],0
same,"Plant response rating, Morningglory",morningglory; [5],0
same,"Plant response rating, Wheat",wheat; [4],0
same,"Plant response rating, Wheat",wheat; [8],0
same,"Plant response rating, Wheat",wheat; [9],0
same,"Plant response rating, Wheat",wheat; [5],0
same,"Plant response rating, Pigweed",pigweed; [4],0
same,"Plant response rating, Pigweed",pigweed; [8],0
same,"Plant response rating, Pigweed",pigweed; [9],0
same,"Plant response rating, Pigweed",pigweed; [5],0
same,"Plant response rating, Foxtail, Giant",giant foxtail; [4],30
same,"Plant response rating, Foxtail, Giant",giant foxtail; [8],50
same,"Plant response rating, Foxtail, Giant",giant foxtail; [9],80
same,"Plant response rating, Foxtail, Giant",giant foxtail; [5],90
same,"Plant response rating, Barnyardgrass",barnyardgrass [2]; [4],20
same,"Plant response rating, Barnyardgrass",barnyardgrass [2]; [8],50
same,"Plant response rating, Barnyardgrass",barnyardgrass [2]; [9],30
same,"Plant response rating, Barnyardgrass",barnyardgrass [2]; [5],80
